Measured values taken from ChEMBL document CHEMBL1143087, “Indirect oxidation of the antitumor agent procarbazine by tyrosinase--possible application in designing anti-melanoma prodrugs” (Bioorg Med Chem Lett, 2008).
The source made the active and inactive calls. The calls are words filed in the database; no cut-off is given here.

Molecular target: T1, Tyrosinase (Agaricus bisporus) (UniProt O42713)
T1 sequence (whole entry): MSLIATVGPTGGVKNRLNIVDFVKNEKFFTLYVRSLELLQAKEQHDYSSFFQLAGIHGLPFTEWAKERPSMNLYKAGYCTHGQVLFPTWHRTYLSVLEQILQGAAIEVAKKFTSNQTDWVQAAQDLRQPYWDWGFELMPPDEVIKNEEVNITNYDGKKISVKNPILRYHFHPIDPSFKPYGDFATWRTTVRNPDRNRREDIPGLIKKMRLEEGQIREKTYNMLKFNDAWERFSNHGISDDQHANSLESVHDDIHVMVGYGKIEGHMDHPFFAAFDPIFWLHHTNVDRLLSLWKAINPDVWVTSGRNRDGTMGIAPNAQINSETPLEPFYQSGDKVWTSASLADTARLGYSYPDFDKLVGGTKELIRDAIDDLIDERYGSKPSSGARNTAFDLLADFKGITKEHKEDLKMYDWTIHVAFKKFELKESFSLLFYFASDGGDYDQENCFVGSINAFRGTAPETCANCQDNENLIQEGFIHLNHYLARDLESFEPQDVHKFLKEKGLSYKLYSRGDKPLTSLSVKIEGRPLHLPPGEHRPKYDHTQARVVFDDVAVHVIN
Test: Increase in mushroom tyrosinase catalysed oxidation of 4-tert-butyl catechol assessed as oxygen consumption after 30 mins

Activity: Active
Structure (SMILES): CNNCc1ccc(C(=O)NC(C)C)cc1
